Among the data in patent US11020395B2, “Cycloalkyl substituted triazole compounds as agonists of the APJ receptor” (AMGEN INC., priority 2016, dated 2021) are EC50 values, retold here.

pEC50: −log10 of the molar value.

Sequence of human APJ receptor (P35414 whole entry): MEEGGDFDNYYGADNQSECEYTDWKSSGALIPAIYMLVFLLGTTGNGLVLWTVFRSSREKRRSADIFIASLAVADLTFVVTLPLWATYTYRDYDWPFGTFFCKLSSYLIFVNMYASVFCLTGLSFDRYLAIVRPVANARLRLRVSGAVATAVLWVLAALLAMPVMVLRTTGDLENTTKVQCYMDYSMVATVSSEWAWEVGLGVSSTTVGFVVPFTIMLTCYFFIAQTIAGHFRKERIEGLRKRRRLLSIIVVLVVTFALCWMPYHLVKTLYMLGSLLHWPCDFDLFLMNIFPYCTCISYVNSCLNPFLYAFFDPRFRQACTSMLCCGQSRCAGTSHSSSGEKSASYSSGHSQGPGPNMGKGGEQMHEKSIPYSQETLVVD

The assay has as its target human APJ receptor (Homo sapiens (Human), UniProt P35414). Description: [35S]GTPγS binding assay on membranes from CHO cells stably expressing human APJ receptor. The format is biochemical. The settings on record: [35S]GTPγS SPA, read-out: Activity hAPJ SPA EC50 IP. In short, it runs like this: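 Membranes from CHO cells stably expressing FLAG-tagged human APJ were incubated with [35S]GTPγS in buffer with optimized GDP, MgCl2 and NaCl, 90 min at RT. EC50 values derived by non-linear regression, averaged over several independent experiments.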
The term pEC50 denotes the EC50 on a negative log10 scale, so that one unit is a factor of ten. `COc1ncnc(OC)c1-n1c(NS(=O)(=O)[C@@H](C)[C@H](OC)c2ncc(Cl)cn2)nnc1[C@H]1CC[C@H]1C` (single isomer, unassigned) [Example 188.0, (1R,2S)-1-(5-chloropyrimidin-2-yl)-N-(4-(4,6-dimethoxypyrimidin-5-yl)-5-((1S,2R)-2-methylcyclobutyl)-4H-1,2,4-triazol-3-yl)-1-methoxypropane-2-sulfonamide or (1R,2S)-1-(5-chloropyrimidin-2-yl)-N-(4-(4,6-dimethoxypyrimidin-5-yl)-5-((1R,2S)-2-methylcyclobutyl)-4H-1,2,4-triazol-3-yl)-1-methoxypropane-2-sulfonamide]: the pEC50 is 7.85.

In the case of `COc1cccc(OC)c1-n1c(NS(=O)(=O)[C@@H](C)[C@H](OC)c2ncc(C)cn2)nnc1[C@H]1C[C@H](Cl)C1` (single isomer, unassigned) [Example 191.0, (1R,2S)-N-(5-((1r,3S)-3-chlorocyclobutyl)-4-(2,6-dimethoxyphenyl)-4H-1,2,4-triazol-3-yl)-1-methoxy-1-(5-methylpyrimidin-2-yl)propane-2-sulfonamide or (1R,2S)-N-(5-((1s,3R)-3-chlorocyclobutyl)-4-(2,6-dimethoxyphenyl)-4H-1,2,4-triazol-3-yl)-1-methoxy-1-(5-methylpyrimidin-2-yl)propane-2-sulfonamide], the pEC50 is 8.12.

As for `COc1cccc(OC)c1-n1c(NS(=O)(=O)[C@@H](C)[C@H](OC)c2ncc(C)cn2)nnc1[C@H]1C[C@H](Cl)C1` (single isomer, unassigned) [Example 192.0, (1R,2S)-N-(5-((1r,3S)-3-chlorocyclobutyl)-4-(2,6-dimethoxyphenyl)-4H-1,2,4-triazol-3-yl)-1-methoxy-1-(5-methylpyrimidin-2-yl)propane-2-sulfonamide or (1R,2S)-N-(5-((1s,3R)-3-chlorocyclobutyl)-4-(2,6-dimethoxyphenyl)-4H-1,2,4-triazol-3-yl)-1-methoxy-1-(5-methylpyrimidin-2-yl)propane-2-sulfonamide], the pEC50 is 8.54. In the case of `COc1cccc(OC)c1-n1c(NS(=O)(=O)[C@@H](C)[C@H](C)c2ncc(C)cn2)nnc1[C@H]1C[C@H](Cl)C1` (single isomer, unassigned) [Example 193.0, (2S,3R)-N-(5-((1r,3S)-3-chlorocyclobutyl)-4-(2,6-dimethoxyphenyl)-4H-1,2,4-triazol-3-yl)-3-(5-methylpyrimidin-2-yl)butane-2-sulfonamide or (2S,3R)-N-(5-((1s,3R)-3-chlorocyclobutyl)-4-(2,6-dimethoxyphenyl)-4H-1,2,4-triazol-3-yl)-3-(5-methylpyrimidin-2-yl)butane-2-sulfonamide], the pEC50 was 8.00.

In the case of `COc1cccc(OC)c1-n1c(NS(=O)(=O)[C@@H](C)[C@H](C)c2ncc(C)cn2)nnc1[C@H]1C[C@H](Cl)C1` (single isomer, unassigned) [Example 194.0, (2S,3R)-N-(5-((1r,3S)-3-chlorocyclobutyl)-4-(2,6-dimethoxyphenyl)-4H-1,2,4-triazol-3-yl)-3-(5-methylpyrimidin-2-yl)butane-2-sulfonamide or (2S,3R)-N-(5-((1s,3R)-3-chlorocyclobutyl)-4-(2,6-dimethoxyphenyl)-4H-1,2,4-triazol-3-yl)-3-(5-methylpyrimidin-2-yl)butane-2-sulfonamide], the pEC50 is 8.60. As for `COc1cccc(OC)c1-n1c(NS(=O)(=O)[C@@H](C)[C@H](OC)c2ncc(Cl)cn2)nnc1[C@H]1C[C@@](C)(F)C1` (single isomer, unassigned) [Example 195.0, (1R,2S)-1-(5-chloropyrimidin-2-yl)-N-(4-(2,6-dimethoxyphenyl)-5-((1s,3R)-3-fluoro-3-methylcyclobutyl)-4H-1,2,4-triazol-3-yl)-1-methoxypropane-2-sulfonamide or (1R,2S)-1-(5-chloropyrimidin-2-yl)-N-(4-(2,6-dimethoxyphenyl)-5-((1r,3S)-3-fluoro-3-methylcyclobutyl)-4H-1,2,4-triazol-3-yl)-1-methoxypropane-2-sulfonamide], the pEC50 is 8.59. The same measure for `COc1cccc(OC)c1-n1c(NS(=O)(=O)[C@@H](C)[C@H](OC)c2ncc(Cl)cn2)nnc1[C@H]1CC(=O)C1(C)C` (single isomer, unassigned) [Example 196.0, (1R,2S)-1-(5-chloropyrimidin-2-yl)-N-(4-(2,6-dimethoxyphenyl)-5-((R)-2,2-dimethyl-3-oxocyclobutyl)-4H-1,2,4-triazol-3-yl)-1-methoxypropane-2-sulfonamide or (1R,2S)-1-(5-chloropyrimidin-2-yl)-N-(4-(2,6-dimethoxyphenyl)-5-((S)-2,2-dimethyl-3-oxocyclobutyl)-4H-1,2,4-triazol-3-yl)-1-methoxypropane-2-sulfonamide]: 6.48; for `COc1cccc(OC)c1-n1c(NS(=O)(=O)[C@@H](C)[C@H](OC)c2ncc(Cl)cn2)nnc1[C@H]1CC(=O)C1(C)C` (single isomer, unassigned) [Example 197.0, (1R,2S)-1-(5-chloropyrimidin-2-yl)-N-(4-(2,6-dimethoxyphenyl)-5-((R)-2,2-dimethyl-3-oxocyclobutyl)-4H-1,2,4-triazol-3-yl)-1-methoxypropane-2-sulfonamide or (1R,2S)-1-(5-chloropyrimidin-2-yl)-N-(4-(2,6-dimethoxyphenyl)-5-((S)-2,2-dimethyl-3-oxocyclobutyl)-4H-1,2,4-triazol-3-yl)-1-methoxypropane-2-sulfonamide]: 6.06; for `COc1cccc(OC)c1-n1c(NS(=O)(=O)[C@@H](C)[C@H](OC)c2ncc(Cl)cn2)nnc1[C@H]1C[C@@](C)(F)C1` (single isomer, unassigned) [Example 198.0, (1R,2S)-1-(5-chloropyrimidin-2-yl)-N-(4-(2,6-dimethoxyphenyl)-5-((1s,3R)-3-fluoro-3-methylcyclobutyl)-4H-1,2,4-triazol-3-yl)-1-methoxypropane-2-sulfonamide or ((1R,2S)-1-(5-chloropyrimidin-2-yl)-N-(4-(2,6-dimethoxyphenyl)-5-((1r,3S)-3-fluoro-3-methylcyclobutyl)-4H-1,2,4-triazol-3-yl)-1-methoxypropane-2-sulfonamide]: 8.43. On to `COc1cccc(OC)c1-n1c(NS(=O)(=O)[C@@H](C)[C@H](OC)c2ncc(Cl)cn2)nnc1[C@H]1CC[C@@H](C#N)CC1` (single isomer, unassigned) [Example 199.0, (1R,2S)-1-(5-chloropyrimidin-2-yl)-N-(5-((1r,4R)-4-cyanocyclohexyl)-4-(2,6-dimethoxyphenyl)-4H-1,2,4-triazol-3-yl)-1-methoxypropane-2-sulfonamide or (1R,2S)-1-(5-chloropyrimidin-2-yl)-N-(5-((1s,4R)-4-cyanocyclohexyl)-4-(2,6-dimethoxyphenyl)-4H-1,2,4-triazol-3-yl)-1-methoxypropane-2-sulfonamide], for which the pEC50 was 8.09. Regarding `COc1ncnc(OC)c1-n1c(NS(=O)(=O)[C@@H](C)[C@H](OC)c2ncc(Cl)cn2)nnc1[C@H]1C[C@]2(CC2(F)F)C1` (single isomer, unassigned) [Example 204.0, (1R,2S)-1-(5-chloropyrimidin-2-yl)-N-(5-((3R,5s)-1,1-difluorospiro[2.3]hexan-5-yl)-4-(4,6-dimethoxypyrimidin-5-yl)-4H-1,2,4-triazol-3-yl)-1-methoxypropane-2-sulfonamide or (1R,2S)-1-(5-chloropyrimidin-2-yl)-N-(5-((3S,5r)-1,1-difluorospiro[2.3]hexan-5-yl)-4-(4,6-dimethoxypyrimidin-5-yl)-4H-1,2,4-triazol-3-yl)-1-methoxypropane-2-sulfonamide], the pEC50 was 7.47.

Regarding `COc1ncnc(OC)c1-n1c(NS(=O)(=O)[C@@H](C)[C@H](OC)c2ncc(Cl)cn2)nnc1[C@H]1C[C@]2(CC2(F)F)C1` (single isomer, unassigned) [Example 205.0, (1R,2S)-1-(5-chloropyrimidin-2-yl)-N-(5-((3R,5s)-1,1-difluorospiro[2.3]hexan-5-yl)-4-(4,6-dimethoxypyrimidin-5-yl)-4H-1,2,4-triazol-3-yl)-1-methoxypropane-2-sulfonamide or (1R,2S)-1-(5-chloropyrimidin-2-yl)-N-(5-((3S,5r)-1,1-difluorospiro[2.3]hexan-5-yl)-4-(4,6-dimethoxypyrimidin-5-yl)-4H-1,2,4-triazol-3-yl)-1-methoxypropane-2-sulfonamide], the pEC50 is 8.26. In the case of `COc1cccc(OC)c1-n1c(NS(=O)(=O)[C@@H](C)[C@H](OC)c2ncc(Cl)cn2)nnc1[C@@H]1CC[C@H]1C` (single isomer, unassigned) [Example 208.0], the pEC50 is 8.57. The same measure for `COc1cccc(OC)c1-n1c(NS(=O)(=O)[C@@H](C)[C@H](OC)c2ncc(Cl)cn2)nnc1[C@H]1CC[C@H](OC)C1` (single isomer, unassigned) [Example 214.0]: 7.70; for `COc1cccc(OC)c1-n1c(NS(=O)(=O)[C@@H](C)[C@H](OC)c2ncc(Cl)cn2)nnc1[C@H]1CC[C@H](OC)C1` (single isomer, unassigned) [Example 215.0]: 7.18; for `COc1cccc(OC)c1-n1c(NS(=O)(=O)[C@@H](C)[C@@H](OC(C)C)c2ncc(C)cn2)nnc1[C@@H]1CCC(=O)C1` (single isomer, unassigned) [Example 229.0, (1S,2S)-N-(4-(2,6-dimethoxyphenyl)-5-((R)-3-oxocyclopentyl)-4H-1,2,4-triazol-3-yl)-1-isopropoxy-1-(5-methylpyrimidin-2-yl)propane-2-sulfonamide or (1S,2S)-N-(4-(2,6-dimethoxyphenyl)-5-((S)-3-oxocyclopentyl)-4H-1,2,4-triazol-3-yl)-1-isopropoxy-1-(5-methylpyrimidin-2-yl)propane-2-sulfonamide]: 7.52.
